GI50 data for one compound are collected here from patent publication US20260159520A1, “HETEROBIFUNCTIONAL COMPOUNDS AND METHODS OF TREATING DISEASE” (Halda Therapeutics OpCo, Inc., priority 2022, published 2026).

Common to all, as to format: cell-based
Test [1] deals with T-Rex 293 cell line SC3 cells having increased expression of androgen receptor protein. The experiment in a line: Cellular growth inhibition, T-Rex 293 SC3 cells with doxycycline (increased androgen receptor expression). The following applies: with 10 ng/mL doxycycline (increased androgen receptor), 72 hours, CellTiter-Glo 2.0. The method, boiled down: (§1)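 Doxycycline (10 ng/mL) was either included or omitted to toggle wild-type androgen receptor expression in SC3 cells, a T-Rex 293 clone, grown in stripped-serum, phenol red-free medium. After 72 hours with compound, viable cells were quantified by CellTiter-Glo 2.0.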
(In general: ATP-based viability assays read luminescence as a measure of living cells.)

For test [2], the system named is T-Rex 293 cell line SC3 cells lacking increased expression of androgen receptor protein. Put plainly: Cellular growth inhibition, T-Rex 293 SC3 cells without doxycycline. The note with it: not exposed to doxycycline, 72 hours, CellTiter-Glo 2.0. In a few lines:
as §1

The test system of a further test is VCaP cells. The experiment in a line: Cellular growth inhibition assay for VCaP cells. The following applies: Homo sapiens, 72 hours, CellTiter-Glo 2.0.
The next test relates to T47D cells. The experiment in a line: Cellular growth inhibition assay for T47D cells. The following applies: Homo sapiens, 72 hours, CellTiter-Glo 2.0. The method, boiled down: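 Luminescence from CellTiter-Glo 2.0 after 72 h of compound exposure gives the viability signal. Cells grew in insulin-supplemented (0.2 units/mL) DMEM with 10% FBS and were treated one day after seeding at 0.5% DMSO. GI50 values come from four-parameter nonlinear regression.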

The structures appear in SMILES notation. Where only a bound is given, the exact number is not on record here.

One may read the GI50 as the concentration giving 50% growth inhibition. On to `CCc1cnn2c(NCc3ccc(OCCCCN4CCN(CC5CCN(c6ncc(C(=O)N[C@H]7C(C)(C)[C@H](Oc8ccc(C#N)c(Cl)c8)C7(C)C)cn6)CC5)CC4)nc3)cc(N3CCCC[C@H]3CCO)nc12` [Compound I-43], for which the GI50 in test [1] was < 100 nM; in test [2], 100 to 1000 nM; in the test with VCaP cells, < 100 nM; in the test with T47D cells, < 500 nM.
